From patent US7329657B2, “Indazolyl-substituted pyrroline compounds as kinase inhibitors” (Ortho-McNeil Pharmaceutical, Inc., priority 2000, dated 2008)

Key:
Type in all cases: biochemical
PKC β-II = PKC β-II (Homo sapiens, UniProt P05771); assay: Protein Kinase C Histone-Based Assay, β-II isoform; conditions: histone III substrate, 30 μM ATP, 10 min at 30° C.; read-out: PKC Activity (IC50 μM, Histone Based Assay) Beta II
Protocol: (§1) Compounds were evaluated for PKC selectivity using histone III as the substrate. […] The reaction was incubated for 10 min at 30° C. Reactions were terminated by TCA precipitation and spotting on Whatman P81 filters. Filters were washed in 75 mM phosphoric acid and the radioactivity quantified by liquid scintillation counting.

PKC γ = PKC γ (Homo sapiens, UniProt P05129); assay: Protein Kinase C Histone-Based Assay, γ isoform; conditions: histone III substrate, 30 μM ATP, 10 min at 30° C.; read-out: PKC Activity (IC50 μM, Histone Based Assay) Gamma
Protocol: as §1

PKC α = PKC α (Homo sapiens, UniProt P17252); assay: Protein Kinase C Histone-Based Assay, α isoform; conditions: histone III substrate, 30 μM ATP, 10 min at 30° C.; read-out: PKC Activity (IC50 μM, Histone Based Assay) Alpha
Protocol: as §1

Sequence of PKC β-II (P05771 1-673 isoform P05771-2): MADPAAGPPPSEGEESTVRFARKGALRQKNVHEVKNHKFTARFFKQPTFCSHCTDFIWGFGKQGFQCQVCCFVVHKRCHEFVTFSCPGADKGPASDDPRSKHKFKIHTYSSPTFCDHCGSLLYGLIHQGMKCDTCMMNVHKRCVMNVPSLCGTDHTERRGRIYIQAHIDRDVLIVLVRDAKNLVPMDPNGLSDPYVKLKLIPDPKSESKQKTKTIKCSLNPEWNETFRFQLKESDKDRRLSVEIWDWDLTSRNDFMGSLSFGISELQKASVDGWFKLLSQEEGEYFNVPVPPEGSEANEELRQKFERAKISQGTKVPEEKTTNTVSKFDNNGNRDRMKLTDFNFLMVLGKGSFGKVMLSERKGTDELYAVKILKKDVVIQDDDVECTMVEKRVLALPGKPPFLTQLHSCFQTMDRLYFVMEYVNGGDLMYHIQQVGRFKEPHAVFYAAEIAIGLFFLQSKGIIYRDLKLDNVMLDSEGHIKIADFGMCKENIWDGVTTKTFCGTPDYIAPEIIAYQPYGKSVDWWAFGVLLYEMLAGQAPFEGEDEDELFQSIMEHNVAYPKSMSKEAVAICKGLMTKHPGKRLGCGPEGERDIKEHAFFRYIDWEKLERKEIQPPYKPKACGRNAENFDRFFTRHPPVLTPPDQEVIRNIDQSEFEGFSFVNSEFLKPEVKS

IC50 (PKC β-II)	IC50 (PKC γ)	IC50 (PKC α)	Structure (SMILES)
0.026 µM			CN(C)CCn1nc2ccccc2c1C1=C(c2cn(-c3csc4ccccc34)c3ccccc23)C(=O)NC1=O [Compound 123, 3-(1-benzo[b]thien-3-yl-1H-indol-3-yl)-4-[2-[2-(dimethylamino)ethyl]-2H-indazol-3-yl]-1H-pyrrole-2,5-dione]
0.005 µM	0.115 µM	0.057 µM	CN(C)CCCn1nc(C2=C(c3cn(-c4ccc5ccccc5c4)c4ccccc34)C(=O)NC2=O)c2ccccc21 [Compound 14, 3-[1-[3-(dimethylamino)propyl]-1H-indazol-3-yl]-4-[1-(2-naphthalenyl)-1H-indol-3-yl]-1H-pyrrole-2,5-dione]
0.015 µM	0.091 µM	0.106 µM	CN(C)CCCn1nc(C2=C(c3cn(-c4ccccn4)c4ccccc34)C(=O)NC2=O)c2ccccc21 [Compound 31, 3-[1-[3-(dimethylamino)propyl]-1H-indazol-3-yl]-4-[1-(2-pyridinyl)-1H-indol-3-yl]-1H-pyrrole-2,5-dione]
0.019 µM	0.134 µM	0.08 µM	CN(C)CCn1nc(C2=C(c3cn(-c4ccc5ccccc5c4)c4ccccc34)C(=O)NC2=O)c2ccccc21 [Compound 101, 3-[1-[2-(dimethylamino)ethyl]-1H-indazol-3-yl]-4-[1-(2-naphthalenyl)-1H-indol-3-yl]-1H-pyrrole-2,5-dione]
0.007 µM	0.213 µM	0.124 µM	CN(C)CCCn1nc(C2=C(c3cn(-c4cccnc4)c4ccccc34)C(=O)NC2=O)c2ccccc21 [Compound 12, 3-[1-[3-(dimethylamino)propyl]-1H-indazol-3-yl]-4-[1-(3-pyridinyl)-1H-indol-3-yl]-H-pyrrole-2,5-dione]
0.016 µM	0.65 µM	1.48 µM	CN(C)CCCn1nc(C2=C(c3cn(Cc4ccc5ccccc5n4)c4ccccc34)C(=O)NC2=O)c2ccccc21 [Compound 67, 3-[1-[3-(dimethylamino)propyl]-1H-indazol-3-yl]-4-[1-(2-quinolinylmethyl)-1H-indol-3-yl]-1H-pyrrole-2,5-dione]
0.008 µM	0.262 µM	0.141 µM	CN(C)CCCn1nc(C2=C(c3cn(-c4cccs4)c4ccccc34)C(=O)NC2=O)c2ccccc21 [Compound 9, 3-[1-[3-(dimethylamino)propyl]-1H-indazol-3-yl]-4-[1-(2-thienyl)-1H-indol-3-yl]-1H-pyrrole-2,5-dione]
0.015 µM	0.253 µM	0.29 µM	CN(C)CCCn1nc(C2=C(c3cn(-c4cncc5ccccc45)c4ccccc34)C(=O)NC2=O)c2ccccc21 [Compound 16, 3-[1-[3-(dimethylamino)propyl]-1H-indazol-3-yl]-4-[1-(4-isoquinolinyl)-1H-indol-3-yl]-1H-pyrrole-2,5-dione]
0.054 µM	0.188 µM	0.546 µM	O=CCCn1nc(C2=C(c3cn(-c4cnc5ccccc5c4)c4ccccc34)C(=O)NC2=O)c2ccccc21 [Compound 23, 3-[2,5-dihydro-2,5-dioxo-4-[1-(3-quinolinyl)-1H-indol-3-yl]-1H-pyrrol-3-yl]-1H-indazole-1-propionaldehyde]
0.013 µM	0.215 µM	0.101 µM	CN(C)CCCn1nc(C2=C(c3cn(-c4ccc5cc(O)ccc5c4)c4ccccc34)C(=O)NC2=O)c2ccccc21 [Compound 64, 3-[1-[3-(dimethylamino)propyl]-1H-indazol-3-yl]-4-[1-(6-hydroxy-2-naphthalenyl)-1H-indol-3-yl]-1H-pyrrole-2,5-dione]
0.057 µM	0.206 µM	0.358 µM	O=C1NC(=O)C(c2nn(CCCO)c3ccccc23)=C1c1cn(-c2ccc3ccccc3c2)c2ccccc12 [Compound 84, 3-[1-(3-hydroxypropyl)-1H-indazol-3-yl]-4-[1-(2-naphthalenyl)-1H-indol-3-yl]-1H-pyrrole-2,5-dione]
0.005 µM		0.339 µM	CN(C)CCCn1nc(C2=C(c3cn(-c4cccnc4)c4ccccc34)C(=O)NC2)c2ccccc21 [Compound 125, 4-[1-[3-(dimethylamino)propyl]-1H-indazol-3-yl]-1,5-dihydro-3-[1-(3-pyridinyl)-1H-indol-3-yl]-2H-pyrrol-2-one]
0.009 µM	0.665 µM	0.205 µM	CN(C)CCCn1nc(C2=C(c3cn(-c4cncnc4)c4ccccc34)C(=O)NC2=O)c2ccccc21 [Compound 34, 3-[1-[3-(dimethylamino)propyl]-1H-indazol-3-yl]-4-[1-(5-pyrimidinyl)-1H-indol-3-yl]-1H-pyrrole-2,5-dione]
0.018 µM	0.342 µM	0.259 µM	O=C1NC(=O)C(c2nn(CCCN3CCOCC3)c3ccccc23)=C1c1cn(-c2ccc3ccccc3c2)c2ccccc12 [Compound 70, 3-[1-[3-(4-morpholinyl)propyl]-1H-indazol-3-yl]-4-[1-(2-naphthalenyl)-1H-indol-3-yl]-1H-pyrrole-2,5-dione]
0.006 µM	0.09 µM	0.043 µM	O=C1NC(=O)C(c2nn(CCCN3CCOCC3)c3ccccc23)=C1c1cn(-c2cnc3ccccc3c2)c2ccccc12 [Compound 22, 3-[1-[3-(4-morpholinyl)propyl]-1H-indazol-3-yl]-4-[1-(3-quinolinyl)-1H-indol-3-yl]-1H-pyrrole-2,5-dione]
0.02 µM	0.161 µM	0.189 µM	CN(C)CCn1nc(C2=C(c3cn(-c4csc5ccccc45)c4ccccc34)C(=O)NC2=O)c2ccccc21 [Compound 103, 3-(1-benzo[b]thien-3-yl-1H-indol-3-yl)-4-[1-[2-(dimethylamino)ethyl]-1H-indazol-3-yl]-1H-pyrrole-2,5-dione]
0.005 µM	0.231 µM	0.032 µM	NCCCn1nc(C2=C(c3cn(-c4cccnc4)c4ccccc34)C(=O)NC2=O)c2ccccc21 [Compound 109, 3-[1-(3-aminopropyl)-1H-indazol-3-yl]-4-[1-(3-pyridinyl)-1H-indol-3-yl]-1H-pyrrole-2,5-dione]
0.029 µM	3.35 µM	1.23 µM	CN(C)CCCn1nc(C2=C(c3cn(-c4cccc5ccccc45)c4ccccc34)C(=O)NC2=O)c2ccccc21 [Compound 15, 3-[1-[3-(dimethylamino)propyl]-1H-indazol-3-yl]-4-[1-(1-naphthalenyl)-1H-indol-3-yl]-1H-pyrrole-2,5-dione]
0.038 µM	0.232 µM	0.422 µM	CN(CCO)CCCn1nc(C2=C(c3cn(-c4ccc5ccccc5c4)c4ccccc34)C(=O)NC2=O)c2ccccc21 [Compound 88, 3-[1-[3-[(2-hydroxyethyl)methylamino]propyl]-1H-indazol-3-yl]-4-[1-(2-naphthalenyl)-1H-indol-3-yl]-1H-pyrrole-2,5-dione]
0.01 µM	0.168 µM	0.071 µM	CN(C)CCCn1nc(C2=C(c3cn(-c4ccccc4)c4ccccc34)C(=O)NC2=O)c2ccccc21 [Compound 45, 3-[1-[3-(dimethylamino)propyl]-1H-indazol-3-yl]-4-(1-phenyl-1H-indol-3-yl)-1H-pyrrole-2,5-dione]
0.029 µM	1.29 µM	0.2 µM	O=C1NC(=O)C(c2nn(CCC3OCCO3)c3ccccc23)=C1c1cn(-c2cnc3ccccc3c2)c2ccccc12 [Compound 24, 3-[1-[2-(1,3-dioxolan-2-yl)ethyl]-1H-indazol-3-yl]-4-[1-(3-quinolinyl)-1H-indol-3-yl]-1H-pyrrole-2,5-dione]
0.037 µM	0.713 µM	0.611 µM	CN(C)CCCn1nc(C2=C(c3cn(-c4csc5ccccc45)c4ccccc34)C(=O)NC2=O)c2ccccc21 [Compound 60, 3-(1-benzo[b]thien-3-yl-1H-indol-3-yl)-4-[1-[3-(dimethylamino)propyl]-1H-indazol-3-yl]-1H-pyrrole-2,5-dione]
0.004 µM	0.045 µM	0.011 µM	CN(C)CCCn1nc(C2=C(c3cn(-c4cccnc4)c4ccc(Cl)cc34)C(=O)NC2=O)c2ccccc21 [Compound 13, 3-[5-chloro-1-(3-pyridinyl)-1H-indol-3-yl]-4-[1-[3-(dimethylamino)propyl]-1H-indazol-3-yl]-1H-pyrrole-2,5-dione]
0.044 µM	0.511 µM	0.477 µM	O=C1NC(=O)C(c2nn(CCCN3CCCC3)c3ccccc23)=C1c1cn(-c2ccc3ccccc3c2)c2ccccc12 [Compound 85, 3-[1-(2-naphthalenyl)-1H-indol-3-yl]-4-[1-[3-(1-pyrrolidinyl)propyl]-1H-indazol-3-yl]-1H-pyrrole-2,5-dione]
0.004 µM	0.047 µM	0.011 µM	CN(C)CCCn1nc(C2=C(c3cn(-c4cnc5ccccc5c4)c4ccccc34)C(=O)NC2=O)c2ccccc21 [Compound 19, 3-[1-[3-(dimethylamino)propyl]-1H-indazol-3-yl]-4-[1-(3-quinolinyl)-1H-indol-3-yl]-1H-pyrrole-2,5-dione]
